In one series the test system is NSCLC. Conditions: cited from earlier work.
A short description of series [1]: Plasma pharmacokinetics of PF-04928473 after oral PF-04929113. It counts as in vivo, human.
For series [2], the system named is cultured human retinal pigment epithelial cells (RPE). Conditions: cited from earlier work.

Data on 4 compounds can be found in article PMC3207004 (Clinical cancer research : an official journal of the …, 2011).

Regarding `C=CCNc1c(O)cc2c(O)c1C[C@@H](C)C[C@H](OC)[C@H](O)[C@@H](C)/C=C(\C)[C@H](OC(N)=O)[C@@H](OC)/C=C\C=C(/C)C(=O)N2` [IPI-504], in the series on NSCLC (76 patients with NSCLC), the Objective response is listed as 7% and the “Objective response, number of patients” value was 5 patients. Moreover, the “Response among 3 patients with ALK rearrangements” value with NSCLC was 2 PRs and one prolonged SD.

Consider `CC1(C)CC(=O)c2c(C(F)(F)F)nn(-c3ccc(C(N)=O)c(N[C@H]4CC[C@H](O)CC4)c3)c2C1` [PF-04928473], for which, in series [1] (after oral PF-04929113), the “Time span in which active drug was detectable in plasma” value is “detectable at 20 minutes through 48 hours”. In addition, in series [1] (high value), the “Clearance (CL/Fm)” value was “hepatic and extra-hepatic clearance”; the “Volume of distribution (Vz/Fm)” value was “extensive tissue binding”. Also, the half-life in series [1] (human, plasma, oral) lay within 8 to 15 h. In addition, in series [1] (in vivo), the “Change of half-life across dose levels” value is recorded as “doesn’t appear to change across different dose levels” and the “Dose linearity of pharmacokinetics” value is “almost linear PK”. Moreover, the “Dose linearity of pharmacokinetics” value in series [1] (in vivo, listed as PF 04928473) is “almost linear pharmacokinetics”. Also, in series [1] (patients), the “Absorption following oral administration” value is reported as “rapid absorption”. In series [1] (twice weekly), the “Drug accumulation after multiple dosing” value is “no drug accumulation”.

As to `C=CCNC1=C2C[C@@H](C)C[C@H](OC)[C@H](O)[C@@H](C)/C=C(\C)[C@H](OC(N)=O)[C@@H](OC)/C=C\C=C(/C)C(=O)NC(=CC1=O)C2=O` [17-AAG], in series [2], the “Effect on cultured human retinal pigment epithelial cells” value is “cytostaticity and cytotoxicity”.

As for `COC1=C2C[C@@H](C)C[C@H](OC)[C@H](O)[C@@H](C)/C=C(\C)[C@H](OC(N)=O)[C@@H](OC)/C=C\C=C(/C)C(=O)NC(=CC1=O)C2=O` [geldanamycin], in series [2], the “Effect on cultured human retinal pigment epithelial cells” value was “cytostaticity and cytotoxicity”.

By half-life is commonly meant how long it takes for the measured level to halve. A higher half-life goes with slow decline.
